How the values were obtained:
[1] = tested on: activated equine neutrophils; assay: MPO release by PMA-activated neutrophils, MPO measured by ELISA in the supernatant; format: cell-based, horse; settings: for Inhibitory percentage, MPO assay by ELISA in the supernatant after neutrophils activation with PMA (MPO release): drug concentration 10^-5 M
Protocol: FIG. 16 represents the inhibitory effect of curcumin on MPO release by neutrophils incubated in PBS buffer with or without stimulation with phorbol myristate acetate (PMA) (Curcumin (Curcu) was dissolved in ethanol. MPO was measured by ELISA in the supernatant of activated neutrophils).
The ELISA developed for MPO (1) measurement is further referred to as a MYELO-ELISA. Rabbit IgG, the primary antibody (2), is immobilized (coated) in excess (3 μg/ml) onto microtitration wells (3) (Cliniplate EB, Labsystem). Standard or test antigen (equine MPO (1)) is incubated overnight with the primary antibody (2) at 4° C. After washing (0.9% NaCl solution containing 0.1% tween 20), the immobilized antibody-antigen complex is incubated (2 h, 37° C.) with an excess (5 μg/ml) of guinea pig IgG, the secondary antibody (4). After washing, a third antibody (5) produced against guinea pig IgG is added. This third IgG (5) (goat IgG) is labelled with alkaline phosphatase (6) and recognizes the “sandwich” complex “primary antibody-MPO-secondary antibody”. After washing, phosphatase activity is detected by incubation (30 min, 37° C., in the darkness) with a paranitrophenyl phosphate solution (phosphatase substrate, Sigma). The reaction is stopped with NaOH and the absorbance (405 nm) is measured with a Multiscan Ascent apparatus (Labsystem) (7). All the volumes added into the wells comprise 100 μl, except for washing (300 μl) and for the substrate solution (200 μl). Controls (blank) and dilutions of the standard MPO and samples were established with dilution buffer [PBS (20 mM phosphate, 137 mM NaCl and 2.7 mM KCl pH 7.4) to which 5 g/L bovine serum albumin and 0.1% tween 20 was added]. The same ELISA technique was developed also for monoclonal antibodies as primary antibody.
(§1) Neutrophils isolated from citrated blood of healthy horses were counted, suspended in phosphate buffer saline (PBS) at pH 7.4 and incubated 10 min at 37° C. with curcumin or THC at the final concentration of 10^−4, 10^−5 or 10^−6 M. After incubation and centrifugation (1000×g, 10 min), the neutrophils were resuspended in PBS and either activated 30 min with 8×10^−7 M phorbol myristate acetate (PMA), with a simultaneous monitoring of the chemiluminescent response in presence of lucigenin (5×10^-8 M), or activated in the same conditions followed by centrifugation and MPO measurement in the supernatant. MPO, marker of neutrophil degranulation, was measured by a specific ELISA assay raised against equine MPO. The effect of polyphenols on MPO activity was tested by SIEFED (“Specific Immunological Extraction Followed by Enzymatic Detection”) method that allows the study of drug interaction with the enzyme without reaction medium interferences.

[2] = tested on: activated equine neutrophils; assay: Chemiluminescence response (lucigenin) of PMA-activated equine neutrophils; format: cell-based, horse; settings: for Inhibition percentage on chemiluminescence response of activated neutrophils: 10^-5 M, neutrophils activated with 8×10^-7 M PMA, lucigenin
Protocol: as §1

[3] = tested on: equine MPO; assay: MPO activity by SIEFED (specific immunological extraction followed by enzymatic detection); format: biochemical, horse; settings: for Effect on MPO activity (in words): SIEFED, polyphenol incubated with MPO, then capture, washing, enzymatic detection
Protocol: FIG. 17 represents the inhibitory effect of curcumin on MPO activity. Concentration of MPO used: 9 ng/ml. The incubation time of curcumin with MPO before assay by SIEFED was 30 min. (The most concentrated curcumin solution was prepared in ethanol (175 mM) and dilutions of this concentrated solution were performed with PBS buffer).
As for the ELISA test, the primary antibody, that captures MPO, is rabbit IgG (3 μg/ml). Standard MPO or unknown sample is incubated 2 h at 37° C. After washing, the peroxidase activity of MPO is detected by adding 100 μl of a 10 μM H2O2 solution and 40 μM of Amplex® Red (10-acetyl-3,7-dihydroxyphenoxazine; Molecular Probes) in phosphate buffer (50 mM, pH 7.5). After incubation in the darkness (30 min, 37° C.), the fluorescence is read at 590 nm with a Fluoroskan Ascent apparatus (Labsystems). The volumes of the primary antibody and the sample put in the wells, are 200 μl. Controls (blank) and dilutions of the samples are established with dilution buffer.
as §1
The SIEFED was applied to study the effects of two natural polyphenols (curcumin and resveratrol) on MPO activity.

| SMILES | Effect on the MPO release by activated neutrophils (in words) ([1]; 10^-4, 10^-5 or 10^-6 M) | Inhibitory percentage, MPO assay by ELISA in the supernatant after neutrophils activation with PMA ([1]; drug concentration 10^-4 M) [%] | Inhibitory percentage, MPO assay by ELISA in the supernatant after neutrophils activation with PMA (MPO release) [1] [%] | Inhibitory percentage, MPO assay by ELISA in the supernatant after neutrophils activation with PMA (MPO release) ([1]; listed as curcumin) [%] | Inhibitory percentage, MPO assay by ELISA in the supernatant after neutrophils activation with PMA ([1]; drug concentration 10^-6 M) [%] | Effect on the chemiluminescence response of activated neutrophils (in words) ([2]; 10^-4, 10^-5 or 10^-6 M) | Inhibition percentage on chemiluminescence response of activated neutrophils [2] [%] | Effect on MPO activity (in words) [3] | Effect on MPO activity (in words) ([3]; listed as curcumin) | Inhibitory percentage, MPO activity (SIEFED) ([3]; drug concentration 10^-4 M) [%] | Inhibitory percentage, MPO activity (SIEFED) ([3]; drug concentration 10^-5 M) [%] | Inhibitory percentage, MPO activity (SIEFED) ([3]; drug concentration 10^-5 M, listed as curcumin) [%] | Inhibitory percentage, MPO activity (SIEFED) ([3]; drug concentration 10^-6 M) [%] |
| --- | --- | --- | --- | --- | --- | --- | --- | --- | --- | --- | --- | --- | --- |
| COc1cc(/C=C/C(=O)CC(=O)/C=C/c2ccc(O)c(OC)c2)ccc1O [Curcumin] | dose dependent inhibitory effects | 83.5 | 43.6 | 44 | 0 | dose dependent inhibitory effects | 70 | dose dependent inhibitory effects | direct dose dependent inhibitory effect | 96.2 | 60.4 | 60 | 21.1 |
| Oc1ccc(C=Cc2cc(O)cc(O)c2)cc1 [resveratrol] | – | – | – | – | – | – | – | direct dose dependent inhibitory effect | – | – | – | – | – |
| COc1cc(CCC(=O)CC(=O)CCc2ccc(O)c(OC)c2)ccc1O [tetrahydrocurcumin] | – | 41 | 18 | – | 17 | – | 12 | – | – | – | – | – | – |
